According to patent US20230339922A1, “COVALENT EGFR INHIBITORS AND METHODS OF USE THEREOF” (DANA-FARBER CANCER INSTITUTE, INC., priority 2020, published 2023):

Assays:
[1] = tested on: EGFR L858R/C797S Ba/F3 cells; assay: Ba/F3 cell proliferation (Cell Titer Glo), EGFR L858R/C797S; type: cell-based, murine; conditions: Mus musculus, BaF3, Ba/F3 cells with EGFR L858R/C797S, 72 hours exposure, read-out: L/C797S
From the text: (§1) The EGFR mutant L858R Ba/F3 cells have been previously described (Zhou, W., et al. Nature 462, 2009, 1070-1074). The EGFR C797S and C775S mutations were introduced via site directed mutagenesis using the Quick Change Site-Directed Mutagenesis kit into a vector containing EGFR […] mutation (Stratagene; La Jolla, CA) according to the manufacturer’s instructions. All constructs were confirmed by DNA sequencing. The constructs were then shuttled into the retroviral vector JP1540 by either using the Cre-recombination system (Agilent Technologies, Santa Clara, CA) or the In-fusion HD Cloning kit (Takara Bio USA, Inc.; Mountain view, CA). Ba/F3 cells were then infected with retrovirus per standard protocols, as described previously (Zhou, et al, Nature 2009). […]
(§2) Growth and inhibition of growth was assessed by the Cell Titer Glo assay (Promega, Madison, WI) and was performed according to the manufacturer’s instructions. The Cell Titer Glo assay is a luminescence-based method used to determine the number of viable cells based on quantitation of the ATP present, which is directly proportional to the amount of metabolically active cells present. Ba/F3 cells of different EGFR genotypes were exposed to compounds for 72 hours and the number of cells used per experiment was determined empirically as has been previously established (Zhou, et al., Nature 2009). […]

[2] = tested on: EGFR mutant L858R Ba/F3 cells; assay: Ba/F3 cell proliferation (Cell Titer Glo), EGFR L858R; type: cell-based, murine; conditions: Mus musculus, BaF3, Ba/F3 cells with EGFR L858R, 72 hours exposure, read-out: L BaF3
From the text: as §1, §2

- EC50 [1]: 334 nM
- EC50 [2]: 6 nM
SMILES: C=CC(=O)Nc1cc(C(=O)Nc2nc3cccc(C)c3n2[C@@H]2CCCCN(C(=O)C=C)C2)cs1 [compound 001]
